Experiment [1] has as its system A2780. Kind of experiment: Anti-tumor activity against human A2780 cells assessed as inhibition of cell viability incubated for 72 hrs by MTT assay. It is filed as functional, cell-based. Particulars: A2780, 72 h.
Experiment [2] is described as follows: Inhibition of recombinant full-length human ATR M211T mutant using GST-cMyc-p53 as substrate incubated for 40 mins by HTRF assay. A general note: TR-FRET usually uses a lanthanide donor and a delayed reading to cut background.
The subject of experiment [3] is MDA-MB-436. Kind of experiment: Anti-tumor activity against human MDA-MB-436 cells assessed as inhibition of cell viability incubated for 72 hrs by MTT assay. It is filed as functional, cell-based. Particulars: MDA-MB-436, 72 h.
The test system of experiment [4] is CWR22R. The experiment can be described thus: Anti-tumor activity against human 22Rv1 cells assessed as inhibition of cell viability incubated for 72 hrs by MTT assay. It is filed as functional, cell-based. Particulars: 22Rv1, 72 h. In general terms: Tetrazolium dyes change colour on reduction, which living cells bring about.
Experiment [5] deals with LoVo. The experiment can be described thus: Anti-tumor activity against human LoVo cells assessed as inhibition of cell viability incubated for 72 hrs by MTT assay. It is filed as functional, cell-based.
For experiment [6], the system named is MDA-MB-468. Kind of experiment: Anti-tumor activity against human MDA-MB-468 cells assessed as inhibition of cell viability incubated for 72 hrs by MTT assay. It is filed as functional, cell-based. Particulars: MDA-MB-468, 72 h.
Experiment [7] has as its system SW-620. The experiment can be described thus: Anti-tumor activity against human SW-620 cells assessed as inhibition of cell viability incubated for 72 hrs by MTT assay. Particulars: SW-620, 72 h. It is filed as functional, cell-based.
Experiment [8] has as its system Granta-519. Kind of experiment: Anti-tumor activity against human Granta-519 cells assessed as inhibition of cell viability incubated for 72 hrs by MTT assay. It is filed as functional, cell-based. Particulars: Granta-519, 72 h.
For experiment [9], the system named is NCI-H23. The experiment can be described thus: Anti-tumor activity against human NCI-H23 cells assessed as inhibition of cell viability incubated for 72 hrs by MTT assay. Particulars: NCI-H23, 72 h. It is filed as functional, cell-based.
Experiment [10] relates to A2780. The experiment can be described thus: Anti-migration activity against human A2780 cells assessed as inhibition of cell migration at 0.1 to 1 uM by wound healing assay. It is filed as functional, cell-based. Particulars: dose 0.1-1 µM, time 24-48 hrs, TDE = time-dependent effect.
The target in experiment [11] is Serine/threonine-protein kinase mTOR (Homo sapiens, UniProt P42345). Kind of experiment: Inhibition of human full length recombinant mTOR in presence of [gamma-33P]ATP incubated for 40 mins by radiometric scintillation counting analysis.
Experiment [12] addresses FKBP12A/mTOR (Homo sapiens, UniProt P42345+P62942). The experiment can be described thus: Inhibition of human full length recombinant mTOR/FKBP12 in presence of [gamma-33P]ATP incubated for 40 mins by radiometric scintillation counting analysis. It is filed as protein-complex assay.
The target in experiment [13] is Phosphatidylinositol 4-phosphate 3-kinase C2 domain-containing subunit alpha (Homo sapiens, UniProt O00443). The experiment can be described thus: Inhibition of human PI3K-C2alpha (299 to ens residues) using phosphatidylinositol-4, 5-bisphosphate as substrate incubated for 40 mins by HTRF assay.
The target of experiment [14] is Serine/threonine-protein kinase ATR (Homo sapiens) (UniProt Q13535). Kind of experiment: Inhibition of ATR in human A2780 cells assessed as induction of DNA damage incubated for 3 days by DAPI staining based immunofluorescence analysis. It is filed as cell-based. Particulars: dose 1-10 µM, time 3.0 day, DDE = dose-dependent effect.
For experiment [15], the system named is A2780. Kind of experiment: Inhibition of colony formation in human A2780 cells by crystal violet staining based analysis. It is filed as functional, cell-based. Particulars: dose 0.03-3 µM, DDE = dose-dependent effect.
For experiment [16], the system named is A2780. Kind of experiment: Anti-migration activity against human A2780 cells assessed as inhibition of cell migration incubated for 24 to 48 hrs by wound healing assay. It is filed as functional, cell-based. Particulars: dose 0.1-1 µM, time 24-48 hrs, DDE = dose-dependent effect.
Experiment [17] has as its target Serine/threonine-protein kinase ATR (Homo sapiens) (UniProt Q13535). Kind of experiment: Inhibition of ATR in HU-treated human A2780 cells assessed as inhibition of ATR phosphorylation by Western blot assay. It is filed as cell-based. Particulars: dose 0.03-10 µM, DDE = dose-dependent effect. A general note: A western blot detects proteins with antibodies after separation by electrophoresis.

Experiment [18] has as its target PI3-kinase p110-delta/p85-alpha (Homo sapiens, UniProt O00329). Kind of experiment: Inhibition of recombinant human full length PI3K p110delta/p85a using phosphatidylinositol-4, 5-bisphosphate as substrate incubated for 40 mins in presence of [gamma33P]ATP by radiometric scintillation counting analysis. It is filed as protein-complex assay.
Experiment [19] addresses Serine/threonine-protein kinase ATR (Homo sapiens) (UniProt Q13535). The experiment can be described thus: Inhibition of ATR in HU-treated human A2780 cells assessed as inhibition of Chk1 phosphorylation at Ser345 residue by Western blot assay. It is filed as cell-based. Particulars: dose 0.03-10 µM, DDE = dose-dependent effect.
The target in experiment [20] is Serine/threonine-protein kinase B-raf (Homo sapiens, UniProt P15056). The experiment can be described thus: Inhibition of human recombinant B-Raf (416 to end residues) using myelin basic protein as substrate in presence of [gamma-33P]ATP incubated for 40 mins by radiometric scintillation counting analysis.

Each structure is given as a SMILES string. Bounds are passed on as bounds.

As usually defined, the IC50 is the concentration at which inhibition is half-maximal.

Serine/threonine-protein kinase ATR (Homo sapiens), sequence (Q13535 whole entry, looked up): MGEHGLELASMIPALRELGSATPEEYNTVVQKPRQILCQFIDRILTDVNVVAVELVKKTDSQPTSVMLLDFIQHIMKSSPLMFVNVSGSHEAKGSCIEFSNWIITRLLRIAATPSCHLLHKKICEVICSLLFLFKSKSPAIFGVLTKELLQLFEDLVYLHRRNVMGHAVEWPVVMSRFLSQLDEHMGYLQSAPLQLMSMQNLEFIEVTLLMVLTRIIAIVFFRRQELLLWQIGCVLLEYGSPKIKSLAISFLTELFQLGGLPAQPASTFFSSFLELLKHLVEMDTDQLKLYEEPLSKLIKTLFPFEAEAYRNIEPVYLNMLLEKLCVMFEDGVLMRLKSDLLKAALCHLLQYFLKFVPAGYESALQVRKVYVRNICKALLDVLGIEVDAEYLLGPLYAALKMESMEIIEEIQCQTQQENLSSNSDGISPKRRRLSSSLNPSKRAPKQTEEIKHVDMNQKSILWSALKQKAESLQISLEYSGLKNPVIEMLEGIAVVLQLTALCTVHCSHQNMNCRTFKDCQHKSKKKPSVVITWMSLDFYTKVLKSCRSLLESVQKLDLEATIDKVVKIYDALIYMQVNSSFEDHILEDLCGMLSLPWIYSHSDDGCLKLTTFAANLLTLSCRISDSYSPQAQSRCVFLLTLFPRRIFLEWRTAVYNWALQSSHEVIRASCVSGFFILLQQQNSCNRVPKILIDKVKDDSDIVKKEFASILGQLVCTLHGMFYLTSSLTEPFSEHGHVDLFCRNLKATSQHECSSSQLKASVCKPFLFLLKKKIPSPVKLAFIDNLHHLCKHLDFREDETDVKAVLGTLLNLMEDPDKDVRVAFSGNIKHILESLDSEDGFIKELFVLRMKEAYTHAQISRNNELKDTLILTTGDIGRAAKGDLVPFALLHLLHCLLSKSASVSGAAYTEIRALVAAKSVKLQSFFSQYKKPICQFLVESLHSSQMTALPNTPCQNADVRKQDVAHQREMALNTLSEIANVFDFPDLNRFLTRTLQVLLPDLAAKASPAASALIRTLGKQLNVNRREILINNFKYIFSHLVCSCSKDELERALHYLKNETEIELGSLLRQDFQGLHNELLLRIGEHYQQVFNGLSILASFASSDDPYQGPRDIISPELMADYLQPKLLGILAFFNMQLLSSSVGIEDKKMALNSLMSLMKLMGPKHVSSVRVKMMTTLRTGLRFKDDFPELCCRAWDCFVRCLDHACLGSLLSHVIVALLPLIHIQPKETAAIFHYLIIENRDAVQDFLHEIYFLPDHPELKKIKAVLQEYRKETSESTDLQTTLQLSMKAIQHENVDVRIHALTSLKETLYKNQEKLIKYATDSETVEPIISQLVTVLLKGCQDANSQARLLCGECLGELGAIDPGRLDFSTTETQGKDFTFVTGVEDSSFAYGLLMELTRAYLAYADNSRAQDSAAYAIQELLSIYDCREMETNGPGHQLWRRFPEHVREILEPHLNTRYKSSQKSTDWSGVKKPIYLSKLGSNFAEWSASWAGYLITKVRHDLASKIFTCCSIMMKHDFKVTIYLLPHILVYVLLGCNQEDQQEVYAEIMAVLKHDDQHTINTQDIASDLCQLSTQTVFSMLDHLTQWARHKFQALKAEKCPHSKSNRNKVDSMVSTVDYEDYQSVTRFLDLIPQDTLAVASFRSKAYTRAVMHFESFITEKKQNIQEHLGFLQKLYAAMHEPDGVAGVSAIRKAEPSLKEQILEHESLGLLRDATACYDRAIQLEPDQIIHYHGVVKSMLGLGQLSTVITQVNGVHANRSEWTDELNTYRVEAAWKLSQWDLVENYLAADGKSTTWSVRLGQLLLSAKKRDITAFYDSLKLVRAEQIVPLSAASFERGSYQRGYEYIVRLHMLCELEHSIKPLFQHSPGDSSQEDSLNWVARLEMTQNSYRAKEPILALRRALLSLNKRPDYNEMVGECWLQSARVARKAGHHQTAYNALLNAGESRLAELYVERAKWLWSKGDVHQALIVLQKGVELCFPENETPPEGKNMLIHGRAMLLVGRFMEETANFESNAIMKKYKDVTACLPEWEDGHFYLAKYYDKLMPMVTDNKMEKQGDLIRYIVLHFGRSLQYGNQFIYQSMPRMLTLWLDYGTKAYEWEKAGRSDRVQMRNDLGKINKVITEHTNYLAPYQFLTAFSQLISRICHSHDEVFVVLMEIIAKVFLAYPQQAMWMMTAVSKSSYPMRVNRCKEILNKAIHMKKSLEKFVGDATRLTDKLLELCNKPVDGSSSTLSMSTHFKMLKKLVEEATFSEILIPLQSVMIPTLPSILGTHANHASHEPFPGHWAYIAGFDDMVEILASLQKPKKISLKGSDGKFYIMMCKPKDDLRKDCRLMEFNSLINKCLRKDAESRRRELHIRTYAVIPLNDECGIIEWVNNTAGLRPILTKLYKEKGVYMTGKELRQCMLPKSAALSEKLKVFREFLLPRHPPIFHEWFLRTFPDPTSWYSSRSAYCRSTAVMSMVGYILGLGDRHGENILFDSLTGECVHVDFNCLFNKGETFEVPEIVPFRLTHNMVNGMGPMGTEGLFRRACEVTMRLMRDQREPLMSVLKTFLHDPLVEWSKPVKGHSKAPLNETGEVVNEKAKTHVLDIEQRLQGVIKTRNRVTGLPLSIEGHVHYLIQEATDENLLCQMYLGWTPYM
Phosphatidylinositol 4-phosphate 3-kinase C2 domain-containing subunit alpha, sequence (O00443 whole entry, the tested form may be a part): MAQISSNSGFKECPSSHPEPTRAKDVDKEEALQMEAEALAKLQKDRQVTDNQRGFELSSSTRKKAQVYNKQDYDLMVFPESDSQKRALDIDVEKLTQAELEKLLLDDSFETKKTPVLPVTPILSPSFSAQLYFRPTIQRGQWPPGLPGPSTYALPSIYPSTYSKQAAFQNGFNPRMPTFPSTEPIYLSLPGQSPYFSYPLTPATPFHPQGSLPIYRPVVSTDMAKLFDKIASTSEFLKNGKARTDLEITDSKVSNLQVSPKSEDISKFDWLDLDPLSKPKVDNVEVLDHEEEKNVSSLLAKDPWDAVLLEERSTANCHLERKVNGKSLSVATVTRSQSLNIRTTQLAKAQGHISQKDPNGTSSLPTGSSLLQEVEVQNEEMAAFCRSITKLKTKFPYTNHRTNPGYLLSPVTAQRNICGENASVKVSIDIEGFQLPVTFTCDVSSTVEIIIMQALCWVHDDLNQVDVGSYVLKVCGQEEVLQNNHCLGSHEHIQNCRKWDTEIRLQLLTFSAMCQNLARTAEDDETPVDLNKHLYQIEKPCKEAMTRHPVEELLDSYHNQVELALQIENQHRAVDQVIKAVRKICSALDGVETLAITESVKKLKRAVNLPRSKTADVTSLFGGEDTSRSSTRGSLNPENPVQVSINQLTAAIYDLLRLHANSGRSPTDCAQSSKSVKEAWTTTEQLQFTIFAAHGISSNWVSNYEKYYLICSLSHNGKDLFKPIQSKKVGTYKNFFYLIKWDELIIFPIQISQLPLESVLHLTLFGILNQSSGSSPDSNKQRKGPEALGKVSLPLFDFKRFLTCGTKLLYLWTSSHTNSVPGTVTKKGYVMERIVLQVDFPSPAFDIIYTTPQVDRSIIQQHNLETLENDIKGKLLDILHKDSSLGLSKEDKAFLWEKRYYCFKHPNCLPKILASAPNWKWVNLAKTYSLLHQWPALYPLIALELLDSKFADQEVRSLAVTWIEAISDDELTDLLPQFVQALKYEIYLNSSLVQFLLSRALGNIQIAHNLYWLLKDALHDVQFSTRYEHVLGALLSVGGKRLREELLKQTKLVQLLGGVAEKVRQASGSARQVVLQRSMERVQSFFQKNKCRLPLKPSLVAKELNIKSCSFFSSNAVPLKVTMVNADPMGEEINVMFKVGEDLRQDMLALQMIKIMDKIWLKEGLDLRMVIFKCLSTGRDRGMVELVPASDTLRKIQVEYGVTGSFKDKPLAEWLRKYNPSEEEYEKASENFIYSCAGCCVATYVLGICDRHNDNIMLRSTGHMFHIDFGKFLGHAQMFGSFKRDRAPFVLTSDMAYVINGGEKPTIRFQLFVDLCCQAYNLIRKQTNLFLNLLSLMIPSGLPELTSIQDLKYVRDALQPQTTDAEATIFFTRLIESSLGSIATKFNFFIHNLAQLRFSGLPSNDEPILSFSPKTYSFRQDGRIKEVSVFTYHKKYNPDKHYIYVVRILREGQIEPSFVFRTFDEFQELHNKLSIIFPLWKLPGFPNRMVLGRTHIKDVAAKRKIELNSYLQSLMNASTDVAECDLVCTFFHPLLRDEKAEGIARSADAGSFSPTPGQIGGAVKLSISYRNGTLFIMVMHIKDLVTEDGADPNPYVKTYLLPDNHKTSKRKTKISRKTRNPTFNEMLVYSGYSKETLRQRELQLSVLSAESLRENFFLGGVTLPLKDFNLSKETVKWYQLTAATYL
FKBP12A/mTOR, sequence (P62942 2-108 limits assumed, other chains not shown): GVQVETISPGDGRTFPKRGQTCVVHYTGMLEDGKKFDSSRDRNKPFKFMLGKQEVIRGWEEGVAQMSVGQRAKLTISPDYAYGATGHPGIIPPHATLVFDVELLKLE

Turning to `C[C@@H]1COCCN1c1nc(-c2c[nH]c3ccccc23)nc2c1CN(S(=O)(=O)C1CC1)C2`, the half-inhibitory concentration (IC50) in experiment [1] was 1350 nM; in experiment [2], 4 nM; in [3], 1880 nM; in experiment [4], 2480 nM; in experiment [5], 2110 nM; in experiment [6] it was 1740 nM. Further, the IC50 came to 3840 nM in experiment [7], 1860 nM in experiment [8] and 3480 nM in experiment [9].

With `O=S(=O)(C1CC1)N1Cc2nc(-c3c[nH]c4ccccc34)nc(NC3COC3)c2C1`, the IC50 in experiment [2] was 10000 nM.

In the case of `C[C@@H]1COCCN1c1nc(-c2c[nH]c3ncccc23)nc2c1CN(S(=O)(=O)C1CC1)C2`, the concentration for half-maximal inhibition (IC50) in experiment [2] was 2470 nM.

For the compound `C[C@@H]1COCCN1c1nc(-c2c[nH]c3ccccc23)nc2c1CN(C(=O)[C@H]1CCCO1)C2`, the half-maximal inhibitory concentration (IC50) in [2] stood at 11 nM.

For `C[C@@H]1COCCN1c1nc(-c2c[nH]c3ccccc23)nc2c1CN(C(=O)C1CCNCC1)C2`, the IC50 in experiment [2] was 601 nM.

As to `CC(C)S(=O)(=O)N1Cc2nc(-c3c[nH]c4ccccc34)nc(N3CCOC[C@H]3C)c2C1`, the IC50 in experiment [1] worked out at 670 nM; in experiment [11], 136 nM; in experiment [12], 125 nM; in [2] it was 7 nM; in [3], 950 nM; in experiment [13], 2720 nM. Further, the IC50 worked out at 1340 nM in experiment [4]; 2150 nM in experiment [18]; 840 nM in experiment [5]; 1420 nM in [6]; 2150 nM in experiment [7]; 1020 nM in experiment [8]. Besides, the IC50 was found to be 2110 nM in experiment [9] and 9440 nM in [20]. In addition, the Activity entry is “Tde” in experiment [10] and “Dde” in experiment [16]. For the same compound, the inhibition result in [14], in [15], in [17] and in experiment [19] was “Dde” in each case.

As for `C[C@@H]1COCCN1c1nc(-c2c[nH]c3ccccc23)nc2c1CN(C(=O)C1CC1)C2`, the IC50 in experiment [1] is 1190 nM; in experiment [2], 6 nM; in experiment [3], 1290 nM; in [4], 1450 nM; in experiment [5], 2630 nM; in [6], 1820 nM. Besides, the IC50 stood at 3960 nM in experiment [7], 1630 nM in experiment [8] and 3350 nM in experiment [9].

For the compound `C[C@@H]1COCCN1c1nc(-c2cccc3[nH]ccc23)nc2c1CN(S(=O)(=O)C1CC1)C2`, the IC50 in [2] came to 53 nM.

Turning to `O=S(=O)(C1CC1)N1Cc2nc(-c3c[nH]c4ccccc34)nc(N3CCOCC3)c2C1`, in [2], the IC50 is 891 nM.

As to `C[C@@H]1COCCN1c1nc(-c2c[nH]c3ccccc23)nc2c1CN(S(=O)(=O)C1CCCCC1)C2`, the IC50 in experiment [2] was 20 nM.

Take `O=S(=O)(C1CC1)N1Cc2nc(-c3c[nH]c4ccccc34)nc(N3C4CCC3COC4)c2C1`: in experiment [2], the half-inhibitory concentration (IC50) is 1390 nM.

In the case of `C[C@@H]1COCCN1c1nc(-c2c[nH]c3ccccc23)nc2c1CN(C(=O)C(C)(C)CCl)C2`, the IC50 in [2] came to 10 nM.

As to `C[C@@H]1COCCN1c1nc(-c2c[nH]c3ccccc23)nc2c1CN(S(=O)(=O)N(C)C)C2`, the IC50 in experiment [2] was found to be 18 nM.

Consider `C[C@H]1COCCN1c1nc(-c2c[nH]c3ccccc23)nc2c1CN(S(=O)(=O)C1CC1)C2`, for which the 50% inhibitory concentration (IC50) in [2] was determined as 4950 nM.

Regarding `O=S(=O)(C1CC1)N1Cc2nc(-c3c[nH]c4ccccc34)nc(N3C[C@H]4COC[C@H]4C3)c2C1`, the IC50 in [2] was over 10000 nM.

Consider `O=S(=O)(C1CC1)N1Cc2nc(-c3c[nH]c4ccccc34)nc(N3CC4CC3CO4)c2C1` (centres undefined), for which, in experiment [2], the IC50 is over 10000 nM.

As for `C[C@@H]1COCCN1c1nc(-c2cc[nH]n2)nc2c1CN(S(=O)(=O)C1CC1)C2`, the concentration for half-maximal inhibition (IC50) in experiment [2] was over 10000 nM.

`C[C@H](CO)Nc1nc(-c2c[nH]c3ccccc23)nc2c1CN(S(=O)(=O)C1CC1)C2`: the IC50 in experiment [2] came out at 8360 nM.

As to `O=S(=O)(C1CC1)N1Cc2nc(-c3c[nH]c4ccccc34)nc(N3CC4CCC(C3)O4)c2C1`, the IC50 in experiment [2] stood at 544 nM.

For the compound `C[C@@H]1COCCN1c1nc(-c2c[nH]c3ccccc23)nc2c1CN(C(=O)C(C)(C)C(F)(F)F)C2`, in [2], the IC50 was 38 nM.

Turning to `C[C@@H]1COCCN1c1nc(-c2cnc3[nH]ccc3c2)nc2c1CN(S(=O)(=O)C1CC1)C2`, in experiment [2], the IC50 was determined as 2710 nM.

In the case of `CCC(C)C(=O)N1Cc2nc(-c3c[nH]c4ccccc34)nc(N3CCOC[C@H]3C)c2C1` (some centres undefined), in experiment [2], the 50% inhibitory concentration (IC50) was determined as 26 nM.

As to `C[C@@H]1COCCN1c1nc(-c2c[nH]c3ccccc23)nc2c1CN(C(=O)C(C)(C)C)C2`, the IC50 in experiment [2] is 25 nM.

On to `C[C@@H]1CN(c2nc(-c3c[nH]c4ccccc34)nc3c2CN(S(=O)(=O)C2CC2)C3)C[C@H](C)O1`, for which, in experiment [2], the IC50 is over 10000 nM.
